Results reported in patent US20190374627A1, “TARGET PEPTIDES FOR CANCER THERAPY AND DIAGNOSTICS” (priority 2016, published 2019).
Entries after “also recorded” stand apart in the source; their conditions may differ. Square brackets hold non-standard residues; d marks the D form. Ends that are not written are not given here. pS = N[C@@H](COP(=O)(O)O)C(=O)O

Columns and labels:
[1] = system: unexpanded lymphocyte cultures (CD8^+ T cells); experiment: ICS for MHC-I-pP reactivity of lymphocyte cultures without expansion (Table 23, No Expansion)
[2] = system: expanded lymphocyte cultures from deceased donor livers, cirrhotic livers and HCC; experiment: ICS for MHC-I-pP reactivity of liver-derived lymphocyte cultures after phosphopeptide-specific expansion; type: cell-based, human
CD8^+ T cells (PBMCs) [3] = experiment: Intracellular cytokine staining (ICS) of PBMCs after 7 days of stimulation with MHC-I-pP (healthy donors, HH patients); type: cell-based, human
Method in brief: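 PBMCs or liver lymphocytes from HLA-A*0201-positive healthy donors and hereditary hemochromatosis patients were stimulated for 7 days with HLA-A*0201-restricted phosphopeptides and no added cytokines. After exclusion of doublets and dead cells with a fixable viability dye, CD3^+CD8^+ cells were analysed by intracellular staining for IFN-γ and TNF-α, plus CD107a where needed.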

[4] = system: expanded TIL / IHL cultures; experiment: ICS for MHC-I-pP reactivity of liver-derived lymphocyte cultures after unspecific rapid expansion protocol (REP); type: cell-based, human
CD8^+ T cells (PBMCs) [5] = experiment: Ex vivo ICS of PBMCs after stimulation for 4 hours with the peptide; type: cell-based, human; details: PBMCs of a patient with hereditary hemochromatosis, 4 hours stimulation

RVAsPTSGV: IRS2 phosphopeptide, HLA-A*0201 (RVA[pS]PTSGV; listed as Homo sapiens)
Reactive CD8^+ T cells, No Expansion, Do4 ([1]; Do4): 3 (5-7.5% reactive CD8^-+ T cells) | Reactive CD8^+ T cells, No Expansion, HH6 ([1]; HH6): 0 (<0.25% reactive CD8^-+ T cells) | Reactive CD8^+ T cells, pP-specific Expansion, Do2 ([2]; pP-specific Expansion, Do2): 0 (<0.25% reactive CD8^-+ T cells) | Reactive CD8^+ T cells, pP-specific Expansion, Do4 ([2]; pP-specific Expansion, Do4): 2 (2.5-5.0% reactive CD8^-+ T cells) | Reactive CD8^+ T cells, pP-specific Expansion, HH6 ([2]; pP-specific Expansion, HH6): 0 (<0.25% reactive CD8^-+ T cells) | ppCTL response, Deceased Donor Liver Do 2 ([2]; pP-specifically expanded culture, Deceased Donor Liver Do 2): 0 (<0.25% reactive CD8-+ T cells) | ppCTL response, Deceased Donor Liver Do 3 ([2]; pP-specifically expanded culture, Deceased Donor Liver Do 3): 0 (<0.25% reactive CD8-+ T cells) | ppCTL response, Deceased Donor Liver Do 4 ([2]; pP-specifically expanded culture, Deceased Donor Liver Do 4): 2 (2.5-5.0% reactive CD8-+ T cells) | ppCTL response, Deceased Donor Liver Do 6 ([2]; pP-specifically expanded culture, Deceased Donor Liver Do 6): 1 (0.25-2.5% reactive CD8-+ T cells) | ppCTL response, End-stage Liver Cirrhosis IHL 11 ([2]; pP-specifically expanded culture, End-stage Liver Cirrhosis IHL 11): 0 (<0.25% reactive CD8-+ T cells) | ppCTL response, End-stage Liver Cirrhosis IHL 12 ([2]; pP-specifically expanded culture, End-stage Liver Cirrhosis IHL 12): 0 (<0.25% reactive CD8-+ T cells) | ppCTL response, End-stage Liver Cirrhosis IHL 13 ([2]; pP-specifically expanded culture, End-stage Liver Cirrhosis IHL 13): 0 (<0.25% reactive CD8-+ T cells) | ppCTL response, End-stage Liver Cirrhosis IHL 15 ([2]; pP-specifically expanded culture, End-stage Liver Cirrhosis IHL 15): 0 (<0.25% reactive CD8-+ T cells) | ppCTL response, HCC Distal HCC 1 ([2]; pP-specifically expanded culture, HCC 1 Distal): 0 (<0.25% reactive CD8-+ T cells) | ppCTL response, HCC Tumor HCC 1 ([2]; pP-specifically expanded culture, HCC 1 Tumor): 0 (<0.25% reactive CD8-+ T cells) | ppCTL response, HCC Distal HCC 4 ([2]; pP-specifically expanded culture, HCC 4 Distal): 0 (<0.25% reactive CD8-+ T cells) | ppCTL response, HCC Distal HCC 9 ([2]; pP-specifically expanded culture, HCC 9 Distal): 0 (<0.25% reactive CD8-+ T cells) | ppCTL response, HCC Tumor HCC 9 ([2]; pP-specifically expanded culture, HCC 9 Tumor): 0 (<0.25% reactive CD8-+ T cells) | ppCTL response, HCC Distal HCC 12 ([2]; pP-specifically expanded culture, HCC 12 Distal): 0 (<0.25% reactive CD8-+ T cells) | Reactive CD8^+ T cell population, HH2 (CD8^+ T cells (PBMCs) [3]; HH patient HH2): 0 (<0.25% reactive CD8^-+ T cells) | Reactive CD8^+ T cell population, HH3 (CD8^+ T cells (PBMCs) [3]; HH patient HH3): 0 (<0.25% reactive CD8^-+ T cells) | Reactive CD8^+ T cell population, HH6 (CD8^+ T cells (PBMCs) [3]; HH patient HH6): 0 (<0.25% reactive CD8^-+ T cells) | Reactive CD8^+ T cell population, HH8 (CD8^+ T cells (PBMCs) [3]; HH patient HH8): 0 (<0.25% reactive CD8^-+ T cells) | Reactive CD8^+ T cell population, HH10 (CD8^+ T cells (PBMCs) [3]; HH patient HH10): 2 (2.5-5.0% reactive CD8^-+ T cells) | Reactive CD8^+ T cell population, HH11 (CD8^+ T cells (PBMCs) [3]; HH patient HH11): 0 (<0.25% reactive CD8^-+ T cells) | Reactive CD8^+ T cell population, HD1 (CD8^+ T cells (PBMCs) [3]; Healthy donor HD1): 0 (<0.25% reactive CD8^-+ T cells) | Reactive CD8^+ T cell population, HD2 (CD8^+ T cells (PBMCs) [3]; Healthy donor HD2): 0 (<0.25% reactive CD8^-+ T cells) | Reactive CD8^+ T cell population, HD3 (CD8^+ T cells (PBMCs) [3]; Healthy donor HD3): 0 (<0.25% reactive CD8^-+ T cells) | Reactive CD8^+ T cell population, HD4 (CD8^+ T cells (PBMCs) [3]; Healthy donor HD4): 0 (<0.25% reactive CD8^-+ T cells) | Reactive CD8^+ T cell population, HD5 (CD8^+ T cells (PBMCs) [3]; Healthy donor HD5): 0 (<0.25% reactive CD8^-+ T cells) | Reactive CD8^+ T cells, Non-specific Expansion, Do2 ([4]; Do2): 0 (<0.25% reactive CD8^-+ T cells) | Reactive CD8^+ T cells, Non-specific Expansion, Do4 ([4]; Do4): 0 (<0.25% reactive CD8^-+ T cells) | Reactive CD8^+ T cells, Non-specific Expansion, HH6 ([4]; HH6): 0 (<0.25% reactive CD8^-+ T cells) | ex vivo CD8^+ T cell response (CD8^+ T cells (PBMCs) [5]): evident ex vivo; also recorded: ex vivo CD8^+ T cell response
